The experiment concerns Human Platelet Aggregation. Description: in vitro human platelet aggregation using PRP (collagen-induced, light transmittance). The class given is cell-based. The following applies: aggregation induced with collagen (final concentration: 5 µ g/ml), 37°C. From the text: (Measurement of in vitro Human Platelet Aggregation using PRP)
Healthy male volunteers who had not taken any medicines for at least two weeks were selected as subjects. Blood was collected from the forearm vein of each subject on an empty stomach using a #19 needle and a plastic syringe preliminarily charged with 1/10 volume of a 3.8% sodium citrate solution. Immediately after the blood collection, the syringe was shaken gently to mix the blood with the sodium citrate solution. The mixed blood was centrifuged (1100 rpm, 250 g) at room temperature for 15 minutes and the rotation was stopped without applying the brake. Then, the supernatant was collected with a Komagome type pipette to obtain platelet-rich plasma (PRP). The PRP was stored at room temperature. The blood remaining after centrifuging was further centrifuged (3500 rpm, 1500 g) at room temperature for 15 minutes and the rotation was stopped without applying the brake. The supernatant was collected to obtain platelet-poor plasma (PPP). After the preparation of the PRP, the number of platelets was counted and only samples containing more than 2 x 10^8 of platelets per milliliter were subjected to the following experiments.
Platelet aggregation was measured using an 8-channel platelet aggregation measuring instrument (Hematracer, Nikoh Bioscience, Tokyo, Japan) on the basis of the change in light transmittance through the PRP. First, the PPP and PRP (each 200µl) were placed in glass cuvettes and incubated at 37°C . Thereafter, the transmittance was measured. The transmittance of the PPP was determined as 100% and that of the PRP as 0%. Then, 10µl of physiological saline or a sample-containing physiological saline was added to the PRP and incubated at 37°C for one minute. A collagen solution (10 µ l) at a concentration of […] was added (final concentration: 5 µ g/ml) to induce aggregation and thereafter the transmittance was measured over 7 minutes. After aggregation with collagen and ADP was confirmed, only those samples in which the maximum aggregation with collagen was at least 70% were subjected to the experiment.
The sample was dissolved in physiological saline to give a concentration of 2.2 x 10 ^-2 M and a 2-fold dilution series was prepared for use in the experiments. The samples insoluble in the physiological saline were dissolved in physiological saline containing 10% DMSO (dimethyl sulfoxide).
The results were calculated as follows: [formula]
A graph was constructed by plotting the percent aggregation inhibition against the sample concentration and the concentration at which the aggregation was inhibited by 50% (IC50) was calculated from the graph.
The compound `CCCCc1ccc(C(NC(=O)c2ccc(C(=N)N)cc2)C(C)(C)C(=O)N2CCC(CC(=O)O)CC2)cc1` (stereo not drawn) [Example 32, N-(N-4-amidinobenzoyl-β-p-n-butylphenyl-α, α-dimethyl-β-alanyl)-4-piperidineacetic acid] returned an IC50 of 0.15 µM. This counts as sub-micromolar. `CC(CC(=O)N1CCC(CC(=O)O)CC1)NC(=O)c1ccc(C(=N)N)cc1` (stereo not drawn) [Comparative Example 2, N-(N-4-amidinobenzoyl-β-methyl-β -alanyl)-4-piperidineacetic acid, reference compound] showed an IC50 of 50 µM. With `CC(C)(C(=O)N1CCC(CC(=O)O)CC1)C(NC(=O)c1ccc(C(=N)N)cc1)c1cccc(O)c1` (stereo not drawn) [Example 28, N-(N-4-amidinobenzoyl-β-m-hydroxyphenyl-α, α-dimethyl-β-alanyl)-4-piperidineacetic acid], the IC50 worked out at 0.076 µM.

In turn, `CC(C)(C(=O)N1CCC(CC(=O)O)CC1)C(NC(=O)c1ccc(C(=N)N)cc1)c1ccccc1` (stereo not drawn) [Example 2, N-(N-4-amidinobenzoyl-β-phenyl-α,α-dimethyl-β-alanyl)-4-piperidineacetic acid] showed an IC50 of 0.19 µM.

The compound `CC(C)(C(=O)N1CCC(CC(=O)O)CC1)C(NC(=O)c1ccc(C(=N)N)cc1)c1ccc(Cl)cc1` (stereo not drawn) [Example 25, N-(N-4-amidinobenzoyl-β-p-chlorophenyl-α,α -dimethyl-β-alanyl)-4-piperidineacetic acid] had an IC50 of 0.48 µM.

`CC(C)C(CNC(=O)c1ccc(C(=N)N)cc1)C(=O)N1CCC(CC(=O)O)CC1` (stereo not drawn) [Comparative Example 7, N-(N-4-amidinobenzoyl-α-isopropyl-β-alanyl)-4-piperidineacetic acid, reference compound] showed an IC50 of 17 µM. This IC50 lies about 35-fold higher than the previous one. Compound `CCC(NC(=O)c1ccc(C(=N)N)cc1F)C(C)(C)C(=O)N1CCC(CC(=O)O)CC1` (stereo not drawn) [Example 39, N-(N-4-amidino-2-fluorobenzoyl-β-ethyl-α, α-dimethyl-β-alanyl)-4-piperidineacetic acid] registered an IC50 of 0.061 µM.

Turning to `CC(C(=O)N1CCC(CC(=O)O)CC1)C(NC(=O)c1ccc(C(=N)N)cc1)c1ccccc1` (stereo not drawn) [Comparative Example 10, N-(N-4-amidinobenzoyl-β-phenyl-α-methyl-β-alanyl)-4-piperidineacetic acid, reference compound], the concentration for half-maximal inhibition (IC50) came out at 16 µM. This IC50 is about 260-fold higher than that of the compound before. The result for `CCC(NC(=O)c1ccc(C(=N)N)cc1)C(C)(C)C(=O)N1CCC(CC(=O)O)CC1` (stereo not drawn) [Example 3, N-(N-4-Amidinobenzoyl-β-ethyl-α,α-dimethyl-β-alanyl)-4-piperidineacetic acid] reads 0.084 µM. As for `CCCCNC(=N)c1ccc(C(=O)NC(c2cccc(Cl)c2)C(C)(C)C(=O)N2CCC(CC(=O)O)CC2)cc1` (stereo not shown) [Example 18], the IC50 was 1 µM. This IC50 is about 12-fold higher than that of the compound before.

In turn, `CC(C)(C(=O)N1CCC(CC(=O)O)CC1)C(CCc1ccccc1)NC(=O)c1ccc(C(=N)N)cc1` (stereo not drawn) [Example 11, N-(N-4-amidinobenzoyl-β-phenethyl-α,α-dimethyl-β-alanyl)-4-piperidineacetic acid] showed an IC50 of 0.16 µM.

`COc1ccc(C(NC(=O)c2ccc(C(=N)N)cc2)C(C)(C)C(=O)N2CCC(CC(=O)O)CC2)cc1` (stereo not drawn) [Example 8, N-(N-4-amidinobenzoyl-β-p-methoxyphenyl-α, α-dimethyl-β-alanyl)-4-piperidineacetic acid] displayed a concentration for half-maximal inhibition (IC50) of 0.25 µM.

On to `CC(C)(C(=O)N1CCC(CC(=O)O)CC1)C(NC(=O)c1ccc(C(=N)N)cc1)c1ccc(F)cc1` (stereo not drawn) [Example 10, N-(N-4-amidinobenzoyl-β-p-fluorophenyl-α, α-dimethyl-β-alanyl)-4-piperidineacetic acid], for which the IC50 was 0.23 µM. `COc1ccccc1C(NC(=O)c1ccc(C(=N)N)cc1)C(C)(C)C(=O)N1CCC(CC(=O)O)CC1` (stereo not drawn) [Example 26, N-(N-4-amidinobenzoyl-β-o-methoxyphenyl-α, α-dimethyl-β-alanyl)-4-piperidineacetic acid]: the 50% inhibitory concentration (IC50) is 0.34 µM. For the compound `CC(C)(C(=O)N1CCC(CC(=O)O)CC1)C(NC(=O)c1ccc(C(=N)N)cc1)c1ccc2ccccc2c1` (stereo not drawn) [Example 16, N-(N-4-amidinobenzoyl-β-(2-naphthyl)-α,α -dimethyl-β-alanyl)-4-piperidineacetic acid], the IC50 was found to be 0.33 µM.

On to `CC(C)(C(=O)N1CCC(CC(=O)O)CC1)C(NC(=O)c1ccc(C(=N)N)cc1)c1ccc(O)cc1` (stereo not drawn) [Example 27, N-(N-4-amidinobenzoyl-β-p-hydroxyphenyl-α, α-dimethyl-β-alanyl)-4-piperidineacetic acid], for which half-maximal inhibition (IC50) was put at 0.2 µM. The result for `CC(C)C(C(=O)N1CCC(CC(=O)O)CC1)C(/C=C/c1ccccc1)NC(=O)c1ccc(C(=N)N)cc1` (stereo not drawn) [Comparative Example 9, N-(N-4-amidinobenzoyl-β-trans-styryl-α-isopropyl-β-alanyl)-4-piperidineacetic acid, reference compound] reads 90 µM; that for `CC(C)(C(=O)N1CCC(CC(=O)O)CC1)C(NC(=O)c1ccc(C(=N)N)cc1)c1ccoc1` (stereo not drawn) [Example 13, N-(N-4-amidinobenzoyl-β-(3-furyl)-α,α-dimethyl-β-alanyl)-4-piperidineacetic acid], 0.27 µM. In turn, `CCCCC(NC(=O)c1ccc(C(=N)N)cc1)C(C)(C)C(=O)N1CCC(CC(=O)O)CC1` (stereo not drawn) [Example 6, N-(N-4-amidinobenzoyl-β-normal-butyl-α,α-dimethyl-β-alanyl)-4-piperidineacetic acid] yielded a half-maximal inhibitory concentration (IC50) of 0.084 µM.

In general, IC50 refers to the concentration needed to halve the response being measured.

(Values after patent publication EP0800516B1, “FIBRINOGEN RECEPTOR ANTAGONISTS HAVING SUBSTITUTED (b)-AMINO ACID RESIDUES AND PHARMACEUTICAL COMPOSITIONS COMPRISING THE SAME” (Nippon Steel Corporation, priority 1994, dated 1996).)
